Assay results: US6613747B2, “6-O-carbamoyl ketolide antibacterials” (Ortho-McNeil Pharmaceutical, Inc., priority 2000, dated 2003)
Values after ≈ are worked out from the molar mass of the structure shown. Like-named read-outs stand apart in the source and are kept apart here.

Experiments:
Assay in all cases: MIC, microdilution broth method (NCCLS)
Assay type in all cases: cell-based
H. influenzae ATCC49247 = details: E: H. influenzae ATCC49247, 35° C., 16-20 hours
Procedure: (§1) Minimal inhibitory concentration (MIC) has been an indicator of in vitro antibacterial activity widely used in the art. The in vitro antimicrobial activity of the compounds was determined by the microdilution broth method following the test method from the National Committee for Clinical Laboratory Standards (NCCLS). This method is described in the NCCLS Document M7-A4, Vol. 17, No. 2, “Methods for Dilution Antimicrobial Susceptibility Test for Bacteria that Grow Aerobically—Fourth Edition”, which is incorporated herein by reference.
(§2) In this method two-fold serial dilutions of drug in cation adjusted Mueller-Hinton broth are added to wells in microdilution trays. The test organisms are prepared by adjusting the turbidity of actively growing broth cultures so that the final concentration of test organism after it is added to the wells is approximately 5×10^4 CFU/well.
(§3) Following inoculation of the microdilution trays, the trays are incubated at 35° C. for 16-20 hours and then read. […] The amount of growth in the wells containing the test compound is compared with the amount of growth in the growth-control wells (no test compound) used in each tray. As set forth in Table 1, compounds of the present invention were tested against a variety of Gram positive and Gram negative pathogenic bacteria resulting in a range of activities depending on the organism tested.

S. aureus ATCC29213 = details: B: S. aureus ATCC29213, 35° C., 16-20 hours
Procedure: as §1, §2, §3

E. coli OC2605 = details: A: E. coli OC2605, 35° C., 16-20 hours
Procedure: as §1, §2, §3

E. faecalis ATCC29212 = details: C: E. faecalis ATCC29212, 35° C., 16-20 hours
Procedure: as §1, §2, §3

S. pneumoniae ATCC49619 = details: D: S. pneumoniae ATCC49619, 35° C., 16-20 hours
Procedure: as §1, §2, §3

SMILES | MIC (H. influenzae ATCC49247) [µg/mL] | MIC (S. aureus ATCC29213) [µg/mL] | MIC (E. coli OC2605) [µg/mL] | MIC (E. faecalis ATCC29212) [µg/mL] | MIC (S. pneumoniae ATCC49619) [µg/mL] | MIC (H. influenzae ATCC49247; Haemophilus influenzae, read-out: MIC) [µg/mL] | MIC (S. aureus ATCC29213; Staphylococcus aureus, read-out: MIC) [µg/mL] | MIC (E. coli OC2605; Escherichia coli, read-out: MIC) [µg/mL] | MIC (E. faecalis ATCC29212; Enterococcus faecalis, read-out: MIC) [µg/mL] | MIC (S. pneumoniae ATCC49619; Streptococcus pneumoniae, read-out: MIC) [µg/mL]
CC[C@H]1OC(=O)[C@H](C)C(=O)[C@H](C)[C@@H](O[C@@H]2O[C@H](C)C[C@H](N(C)C)[C@H]2O)[C@](C)(OC(=O)NC/C(C)=C/c2ccccc2)C[C@@H](C)C(=O)[C@H](C)[C@H]2NC(=O)O[C@@]21C [Compound 21] | 4 (≈ 5.18 µM) | 0.5 (≈ 0.648 µM) | >16 | 0.25 (≈ 0.324 µM) | 0.06 (≈ 0.0777 µM) |  |  |  |  | 
CC[C@H]1OC(=O)[C@H](C)C(=O)[C@H](C)[C@@H](O[C@@H]2O[C@H](C)C[C@H](N(C)C)[C@H]2O)[C@](C)(OC(=O)NC/C=C/C=C/c2ccc(-n3cccn3)cc2)C[C@@H](C)C(=O)[C@H](C)[C@H]2NC(=O)O[C@@]21C [Compound 60] | 8 (≈ 9.41 µM) | 1 (≈ 1.18 µM) | >16 | 0.5 (≈ 0.588 µM) | 0.25 (≈ 0.294 µM) |  |  |  |  | 
CC[C@H]1OC(=O)[C@H](C)C(=O)[C@H](C)[C@@H](O[C@@H]2O[C@H](C)C[C@H](N(C)C)[C@H]2O)[C@](C)(OC(=O)NCCCc2ccncc2)C[C@@H](C)C(=O)[C@H](C)[C@H]2NC(=O)O[C@@]21C [Compound 24] | 2 (≈ 2.63 µM) | 1 (≈ 1.31 µM) | 16 (≈ 21 µM) | 0.12 (≈ 0.158 µM) | 0.06 (≈ 0.0789 µM) |  |  |  |  | 
CC[C@H]1OC(=O)[C@H](C)C(=O)[C@H](C)[C@@H](O[C@@H]2O[C@H](C)C[C@H](N(C)C)[C@H]2O)[C@](C)(OC(=O)NC/C=C/c2ccc(-c3ccncn3)cc2)C[C@@H](C)C(=O)[C@H](C)[C@H]2NC(=O)O[C@@]21C [Compound 78] | 4 (≈ 4.78 µM) | 0.25 (≈ 0.299 µM) | >16 | 0.06 (≈ 0.0718 µM) | 0.03 (≈ 0.0359 µM) |  |  |  |  | 
CC[C@H]1OC(=O)[C@H](C)C(=O)[C@H](C)[C@@H](O[C@@H]2O[C@H](C)C[C@H](N(C)C)[C@H]2O)[C@](C)(OC(=O)NC/C=C/c2ccc(-c3nccc(OC)n3)cc2)C[C@@H](C)C(=O)[C@H](C)[C@H]2NC(=O)O[C@@]21C [Compound 71] | 4 (≈ 4.62 µM) | 0.25 (≈ 0.289 µM) | >16 | 0.12 (≈ 0.139 µM) | 0.06 (≈ 0.0693 µM) |  |  |  |  | 
CC[C@H]1OC(=O)[C@H](C)C(=O)[C@H](C)[C@@H](O[C@@H]2O[C@H](C)C[C@H](N(C)C)[C@H]2O)[C@](C)(OC(=O)NC/C=C/c2ccc(-c3ccnn3C)cc2)C[C@@H](C)C(=O)[C@H](C)[C@H]2NC(=O)O[C@@]21C [Compound 44] | 2 (≈ 2.39 µM) | 0.25 (≈ 0.298 µM) | >16 | 0.12 (≈ 0.143 µM) | 0.12 (≈ 0.143 µM) |  |  |  |  | 
CC[C@H]1OC(=O)[C@H](C)C(=O)[C@H](C)[C@@H](O[C@@H]2O[C@H](C)C[C@H](N(C)C)[C@H]2OC(C)=O)[C@](C)(OC(=O)NC/C=C/c2ccc(-c3ncccn3)cc2)C[C@@H](C)C(=O)[C@H](C)[C@H]2NC(=O)O[C@@]21C [Compound 94] | 2 (≈ 2.28 µM) | 0.25 (≈ 0.285 µM) | >16 | 0.12 (≈ 0.137 µM) | 0.06 (≈ 0.0683 µM) |  |  |  |  | 
CC[C@H]1OC(=O)[C@H](C)C(=O)[C@H](C)[C@@H](O[C@@H]2O[C@H](C)C[C@H](N(C)C)[C@H]2O)[C@](C)(OC(=O)NC/C=C/c2ccncc2)C[C@@H](C)C(=O)[C@H](C)[C@H]2NC(=O)O[C@@]21C [Compound 30] | 2 (≈ 2.64 µM) | 0.5 (≈ 0.659 µM) | 16 (≈ 21.1 µM) | 0.12 (≈ 0.158 µM) | 0.03 (≈ 0.0395 µM) |  |  |  |  | 
CCC1OC(=O)C(C)(F)C(=O)C(C)C(OC2OC(C)CC(N(C)C)C2O)C(C)(OC(=O)NCC=Cc2ccc3ncccc3c2)CC(C)C(=O)C(C)C2NC(=O)OC12C (centres unmarked) [Compound 90] | 4 (≈ 4.84 µM) | 0.25 (≈ 0.302 µM) | 8 (≈ 9.67 µM) | 0.06 (≈ 0.0726 µM) | 0.03 (≈ 0.0363 µM) |  |  |  |  | 
CC[C@H]1OC(=O)[C@H](C)C(=O)[C@H](C)[C@@H](O[C@@H]2O[C@H](C)C[C@H](N(C)C)[C@H]2O)[C@](C)(OC(=O)NC/C=C/c2ccc(-n3cncn3)cc2)C[C@@H](C)C(=O)[C@H](C)[C@H]2NC(=O)O[C@@]21C [Compound 20] | 4 (≈ 4.85 µM) | 0.12 (≈ 0.145 µM) | 16 (≈ 19.4 µM) | 0.06 (≈ 0.0727 µM) | 0.03 (≈ 0.0364 µM) |  |  |  |  | 

Now from value to compound:

MIC (H. influenzae ATCC49247) [µg/mL] | MIC (S. aureus ATCC29213) [µg/mL] | MIC (E. coli OC2605) [µg/mL] | MIC (E. faecalis ATCC29212) [µg/mL] | MIC (S. pneumoniae ATCC49619) [µg/mL] | MIC (H. influenzae ATCC49247; Haemophilus influenzae, read-out: MIC) [µg/mL] | MIC (S. aureus ATCC29213; Staphylococcus aureus, read-out: MIC) [µg/mL] | MIC (E. coli OC2605; Escherichia coli, read-out: MIC) [µg/mL] | MIC (E. faecalis ATCC29212; Enterococcus faecalis, read-out: MIC) [µg/mL] | MIC (S. pneumoniae ATCC49619; Streptococcus pneumoniae, read-out: MIC) [µg/mL] | SMILES
4 (≈ 4.68 µM) | 0.25 (≈ 0.293 µM) | >16 | 0.12 (≈ 0.141 µM) | 0.03 (≈ 0.0351 µM) |  |  |  |  |  | CCC1OC(=O)C(C)(F)C(=O)C(C)C(OC2OC(C)CC(N(C)C)C2O)C(C)(OC(=O)NCC=Cc2ccc(-c3ncccn3)cc2)CC(C)C(=O)C(C)C2NC(=O)OC12C (centres unmarked) [Compound 75]
 |  |  |  |  | 2 (≈ 2.39 µM) | 0.25 (≈ 0.298 µM) | > 16 | 0.12 (≈ 0.143 µM) | 0.03 (≈ 0.0358 µM) | CC[C@H]1OC(=O)[C@H](C)C(=O)[C@H](C)[C@@H](O[C@@H]2O[C@H](C)C[C@H](N(C)C)[C@H]2O)[C@](C)(OC(=O)NC/C=C/c2ccc(-c3ccn(C)n3)cc2)C[C@@H](C)C(=O)[C@H](C)[C@H]2NC(=O)O[C@@]21C [Compound 43, Carbamic acid, [(2E)-3-[4-(1-methyl-1H-pyrazol-3-yl)phenyl]-2-propenyl]-, (3aS,4R,7R,9R,10R,11R,13R,15R,15aR)-4-ethyltetradecahydro-3a,7,9,11,13,15-hexamethyl-2,6,8,14-tetraoxo-10-[[3,4,6-trideoxy-3-(dimethylamino)-β-D-xylo-hexopyranosyl]oxy]-2H-oxacyclotetradecino[4,3-d]oxazol-11-yl ester]
4 (≈ 4.71 µM) | 0.25 (≈ 0.294 µM) | >16 | 0.12 (≈ 0.141 µM) | 0.03 (≈ 0.0353 µM) |  |  |  |  |  | CC[C@H]1OC(=O)[C@H](C)C(=O)[C@H](C)[C@@H](O[C@@H]2O[C@H](C)C[C@H](N(C)C)[C@H]2O)[C@](C)(OC(=O)NC/C=C/c2ccc(-c3nccc(C)n3)cc2)C[C@@H](C)C(=O)[C@H](C)[C@H]2NC(=O)O[C@@]21C [Compound 68]
4 (≈ 4.59 µM) | 0.5 (≈ 0.573 µM) | >16 | 0.25 (≈ 0.287 µM) | 0.06 (≈ 0.0688 µM) |  |  |  |  |  | CCC1OC(=O)C(C)(F)C(=O)C(C)C(OC2OC(C)CC(N(C)C)C2O)C(C)(OC(=O)NCCOCc2ccc(-c3ncccn3)cc2)CC(C)C(=O)C(C)C2NC(=O)OC12C (centres unmarked) [Compound 108]
2 (≈ 2.47 µM) | 0.25 (≈ 0.309 µM) | 16 (≈ 19.8 µM) | 0.06 (≈ 0.0741 µM) | 0.03 (≈ 0.037 µM) |  |  |  |  |  | CC[C@H]1OC(=O)[C@H](C)C(=O)[C@H](C)[C@@H](O[C@@H]2O[C@H](C)C[C@H](N(C)C)[C@H]2O)[C@](C)(OC(=O)NCc2ccc(-c3ncccn3)cc2)C[C@@H](C)C(=O)[C@H](C)[C@H]2NC(=O)O[C@@]21C [Compound 31]
4 (≈ 4.87 µM) | 0.25 (≈ 0.304 µM) | >16 | 0.06 (≈ 0.073 µM) | 0.03 (≈ 0.0365 µM) |  |  |  |  |  | CC[C@H]1OC(=O)[C@H](C)C(=O)[C@H](C)[C@@H](O[C@@H]2O[C@H](C)C[C@H](N(C)C)[C@H]2O)[C@](C)(OC(=O)NCC#Cc2ccc(-n3cccn3)cc2)C[C@@H](C)C(=O)[C@H](C)[C@H]2NC(=O)O[C@@]21C [Compound 82]
4 (≈ 4.78 µM) | 0.5 (≈ 0.598 µM) | 8 (≈ 9.56 µM) | 0.12 (≈ 0.143 µM) | 0.03 (≈ 0.0359 µM) |  |  |  |  |  | CC[C@H]1OC(=O)[C@H](C)C(=O)[C@H](C)[C@@H](O[C@@H]2O[C@H](C)C[C@H](N(C)C)[C@H]2O)[C@](C)(OC(=O)NC/C=C/c2ccc(Br)cc2)C[C@@H](C)C(=O)[C@H](C)[C@H]2NC(=O)O[C@@]21C [Compound 16]
4 (≈ 4.84 µM) | 2 (≈ 2.42 µM) | >16 | 0.25 (≈ 0.303 µM) | 0.06 (≈ 0.0726 µM) |  |  |  |  |  | CC[C@H]1OC(=O)[C@H](C)C(=O)[C@H](C)[C@@H](O[C@@H]2O[C@H](C)C[C@H](N(C)C)[C@H]2O)[C@](C)(OC(=O)NCCNCc2cnc3ccccc3c2)C[C@@H](C)C(=O)[C@H](C)[C@H]2NC(=O)O[C@@]21C [Compound 114]
1 (≈ 1.25 µM) | 1 (≈ 1.25 µM) | >16 | 0.12 (≈ 0.15 µM) | 0.06 (≈ 0.0752 µM) |  |  |  |  |  | CC[C@H]1OC(=O)[C@H](C)C(=O)[C@H](C)[C@@H](O[C@@H]2O[C@H](C)C[C@H](N(C)C)[C@H]2O)[C@](C)(OC(=O)NCc2ccc(-c3cc[nH]n3)cc2)C[C@@H](C)C(=O)[C@H](C)[C@H]2NC(=O)O[C@@]21C [Compound 39]
